Assay results reported in ChEMBL document CHEMBL3608207, “Synthesis, characterization, evaluation and molecular dynamics studies of 5, 6-diphenyl-1,2,4-triazin-3(2H)-one derivatives bearing 5-substituted 1,3,4-oxadiazole as potential anti-inflammatory and analgesic agents” (Eur J Med Chem, 2015).

Key:
Rattus norvegicus [1] = assay: Anti-inflammatory activity in rat model of acute inflammation assessed as inhibition of carrageenan-induced paw oedema dosed at 10 mg/kg, po dosed 1 hr before carrageenan injection and measured 3 hrs after carrageenan injection; assay type: functional
Rattus norvegicus [2] = assay: Anti-inflammatory activity in rat model of acute inflammation assessed as inhibition of carrageenan-induced paw oedema dosed at 10 mg/kg, po dosed 1 hr before carrageenan injection and measured 4 hrs after carrageenan injection; assay type: functional
Rattus norvegicus [3] = assay: Anti-inflammatory activity in rat model of acute inflammation assessed as inhibition of carrageenan-induced paw oedema dosed at 10 mg/kg, po dosed 1 hr before carrageenan injection and measured 5 hrs after carrageenan injection; assay type: functional
Rattus norvegicus [4] = assay: Anti-inflammatory activity in rat model of acute inflammation assessed as inhibition of carrageenan-induced paw oedema dosed at 10 mg/kg, po dosed 1 hr before carrageenan injection and measured 6 hrs after carrageenan injection; assay type: functional
Rattus norvegicus [5] = assay: Anti-inflammatory activity in rat assessed as inhibition of arachidonic acid-induced paw edema at 10 mg/kg, po dosed 30 mins before arachidonic acid injection and measured 1 hr after arachidonic acid injection; assay type: functional
Rattus norvegicus [6] = assay: Anti-inflammatory activity in rat Freund's adjuvant induced arthritis model of chronic inflammation assessed as inhibition of right hind paw swelling at 10 mg/kg, po dosed after 14 days from day of adjuvant injection until day 21 and measured on day 3; assay type: functional
Rattus norvegicus [7] = assay: Anti-inflammatory activity in rat Freund's adjuvant induced arthritis model of chronic inflammation assessed as inhibition of right hind paw swelling at 10 mg/kg, po dosed after 14 days from day of adjuvant injection until day 21 and measured on day 6; assay type: functional
Rattus norvegicus [8] = assay: Anti-inflammatory activity in rat Freund's adjuvant induced arthritis model of chronic inflammation assessed as inhibition of right hind paw swelling at 10 mg/kg, po dosed after 14 days from day of adjuvant injection until day 21 and measured on day 9; assay type: functional
Rattus norvegicus [9] = assay: Anti-inflammatory activity in rat Freund's adjuvant induced arthritis model of chronic inflammation assessed as inhibition of right hind paw swelling at 10 mg/kg, po dosed after 14 days from day of adjuvant injection until day 21 and measured on day 12; assay type: functional
Rattus norvegicus [10] = assay: Anti-inflammatory activity in rat Freund's adjuvant induced arthritis model of chronic inflammation assessed as inhibition of right hind paw swelling at 10 mg/kg, po dosed after 14 days from day of adjuvant injection until day 21 and measured on day 15; assay type: functional
Rattus norvegicus [11] = assay: Anti-inflammatory activity in rat Freund's adjuvant induced arthritis model of chronic inflammation assessed as inhibition of right hind paw swelling at 10 mg/kg, po dosed after 14 days from day of adjuvant injection until day 21 and measured on day 18; assay type: functional
Rattus norvegicus [12] = assay: Anti-inflammatory activity in rat Freund's adjuvant induced arthritis model of chronic inflammation assessed as inhibition of right hind paw swelling at 10 mg/kg, po dosed after 14 days from day of adjuvant injection until day 21 and measured on day 21; assay type: functional
Rattus norvegicus [13] = assay: Gastro-intestinal toxicity in rat Freund's adjuvant induced arthritis model of chronic inflammation assessed as ulcer index at 10 mg/kg, po dosed after 14 days from day of adjuvant injection until day 21 and measured on day 21; assay type: organism-based; settings: in vivo, 336 h
Rattus norvegicus [14] = assay: Gastro-intestinal toxicity in rat Freund's adjuvant induced arthritis model of chronic inflammation assessed as assessed as histological changes at 10 mg/kg, po dosed after 14 days from day of adjuvant injection until day 21 and measured on day 21 by hematoxylin and eosin staining based microscopy; assay type: organism-based; settings: in vivo, 336 h
Rattus norvegicus [15] = assay: Hepato-toxicity in rat Freund's adjuvant induced arthritis model of chronic inflammation assessed as assessed as SGOT level at 10 mg/kg, po dosed after 14 days from day of adjuvant injection until day 21 and measured on day 21 (reference value: 92.48 +/- 7.8 U/mL); assay type: organism-based; settings: in vivo, 336 h
Rattus norvegicus [16] = assay: Hepato-toxicity in rat Freund's adjuvant induced arthritis model of chronic inflammation assessed as assessed as SGPT level at 10 mg/kg, po dosed after 14 days from day of adjuvant injection until day 21 and measured on day 21 (reference value: 34.23 +/- 2.5 U/mL); assay type: organism-based; settings: in vivo, 336 h
Rattus norvegicus [17] = assay: Hepato-toxicity in rat Freund's adjuvant induced arthritis model of chronic inflammation assessed as assessed as alkaline phosphatase level at 10 mg/kg, po dosed after 14 days from day of adjuvant injection until day 21 and measured on day 21 (reference value: 17.82 +/- 1.2 U); assay type: organism-based; settings: in vivo, 336 h
Rattus norvegicus [18] = assay: Renal toxicity in rat Freund's adjuvant induced arthritis model of chronic inflammation assessed as assessed as total protein level at 10 mg/kg, po dosed after 14 days from day of adjuvant injection until day 21 and measured on day 21 (reference value: 1.78 +/- 0.11 g/dL); assay type: organism-based; settings: in vivo, 336 h
Rattus norvegicus [19] = assay: Renal toxicity in rat Freund's adjuvant induced arthritis model of chronic inflammation assessed as assessed as total albumin level at 10 mg/kg, po dosed after 14 days from day of adjuvant injection until day 21 and measured on day 21 (reference value: 1.77 +/- 0.12 g/dL); assay type: organism-based; settings: in vivo, 336 h
Rattus norvegicus [20] = assay: Renal toxicity in rat Freund's adjuvant induced arthritis model of chronic inflammation assessed as assessed as creatinine level at 10 mg/kg, po dosed after 14 days from day of adjuvant injection until day 21 and measured on day 21 (reference value: 0.62 +/- 0.049 mg/dL); assay type: organism-based; settings: in vivo, 336 h
Rattus norvegicus [21] = assay: Renal toxicity in rat Freund's adjuvant induced arthritis model of chronic inflammation assessed as assessed as blood urea nitrogen level at 10 mg/kg, po dosed after 14 days from day of adjuvant injection until day 21 and measured on day 21 (reference value: 23.48 +/- 1.8 mg/dL); assay type: organism-based; settings: in vivo, 336 h
Rattus norvegicus [22] = assay: Hepato-toxicity in rat Freund's adjuvant induced arthritis model of chronic inflammation assessed as assessed as histological changes at 10 mg/kg, po dosed after 14 days from day of adjuvant injection until day 21 and measured on day 21 by hematoxylin and eosin staining based microscopy; assay type: organism-based; settings: in vivo, 336 h
Rattus norvegicus [23] = assay: Renal toxicity in rat Freund's adjuvant induced arthritis model of chronic inflammation assessed as assessed as histological changes at 10 mg/kg, po dosed after 14 days from day of adjuvant injection until day 21 and measured on day 21 by hematoxylin and eosin staining based microscopy; assay type: organism-based; settings: in vivo, 336 h
Mus musculus [24] = assay: Analgesic activity in Swiss albino mouse assessed as reduction in number of writhing episodes at 10 mg/kg, po measured 30 mins following acetic acid injection; assay type: functional; settings: 0.5 h
Mus musculus [25] = assay: Analgesic activity in Swiss albino mouse assessed as reduction in formalin-induced paw licking by measuring time spent on licking during phase-1 at 10 mg/kg, po dosed 1 hr before formalin challenge and measured 30 mins after formalin injection; assay type: functional
Mus musculus [26] = assay: Analgesic activity in Swiss albino mouse assessed as reduction in formalin-induced paw licking by measuring time spent on licking during phase-2 at 10 mg/kg, po dosed 1 hr before formalin challenge and measured 30 mins after formalin injection; assay type: functional
[27] = In-vitro antiinflammatory activity assessed as inhibition of denaturation of bovine serum albumin at 10 mg; assay type: functional
Rattus norvegicus [28] = assay: Anti-inflammatory activity in rat model of acute inflammation assessed as inhibition of carrageenan-induced paw oedema dosed at 10 mg/kg, po dosed 1 hr before carrageenan injection and measured 1 hr after carrageenan injection; assay type: functional
Rattus norvegicus [29] = assay: Anti-inflammatory activity in rat model of acute inflammation assessed as inhibition of carrageenan-induced paw oedema dosed at 10 mg/kg, po dosed 1 hr before carrageenan injection and measured 2 hrs after carrageenan injection; assay type: functional

## COc1ccc2c(c1)c(CC(=O)O)c(C)n2C(=O)c1ccc(Cl)cc1 [INDOMETHACIN]
Rattus norvegicus [1]
  inhibition in vivo at 10 mg/kg: 60.5%
Rattus norvegicus [2]
  inhibition in vivo at 10 mg/kg: 60%
Rattus norvegicus [3]
  inhibition in vivo at 10 mg/kg: 62.6%
Rattus norvegicus [4]
  inhibition in vivo at 10 mg/kg: 57.8%
Rattus norvegicus [5]
  inhibition in vivo at 10 mg/kg: 21.1%
Rattus norvegicus [6]
  inhibition in vivo at 10 mg/kg: 33.1%
Rattus norvegicus [7]
  inhibition in vivo at 10 mg/kg: 39.7%
Rattus norvegicus [8]
  inhibition in vivo at 10 mg/kg: 42.4%
Rattus norvegicus [9]
  inhibition in vivo at 10 mg/kg: 45.9%
Rattus norvegicus [10]
  inhibition in vivo at 10 mg/kg: 51.3%
Rattus norvegicus [11]
  inhibition in vivo at 10 mg/kg: 54.2%
Rattus norvegicus [12]
  inhibition in vivo at 10 mg/kg: 56.8%
Rattus norvegicus [13]
  UI: 52
Rattus norvegicus [14]
  Activity: Toxic
Rattus norvegicus [15]
  Activity: 121.56 U/ml
Rattus norvegicus [16]
  Activity: 52.83 U/ml
Rattus norvegicus [17]
  Activity: 26.24 U
Rattus norvegicus [18]
  Activity: 2.24 g/dL
Rattus norvegicus [19]
  Activity: 2.08 g/dL
Rattus norvegicus [20]
  Activity: 1.84 mg/dL
Rattus norvegicus [21]
  Activity: 62.74 mg/dL
Rattus norvegicus [22]
  Activity: Toxic
Rattus norvegicus [23]
  Activity: Toxic
Mus musculus [24]
  inhibition in vivo at 10 mg/kg: 77.3%
Mus musculus [25]
  inhibition in vivo at 10 mg/kg: 15.6%
Mus musculus [26]
  inhibition in vivo at 10 mg/kg: 82.2%
[27]
  inhibition: 84.9%
Rattus norvegicus [28]
  inhibition in vivo at 10 mg/kg: 57.6%
Rattus norvegicus [29]
  inhibition in vivo at 10 mg/kg: 59.5%
